Measured values published in patent US20120095055A1, “HEXAHYDROCYCLOPENTYL[f]INDAZOLE 5-HYDROXYMETHYL ETHANOLS AND DERIVATIVES THEREOF AS SELECTIVE GLUCOCORTICOID RECEPTOR MODULATORS” (Merck Sharp & Dohme, Corp., priority 2009, published 2012).

Biological target: T1, glucocorticoid receptor (GR) (Homo sapiens, UniProt P04150)
T1 construct: endogenous in cells; host or cells: HeLa (ATCC) cell lysate supernatant
T1 sequence (P04150 1-777): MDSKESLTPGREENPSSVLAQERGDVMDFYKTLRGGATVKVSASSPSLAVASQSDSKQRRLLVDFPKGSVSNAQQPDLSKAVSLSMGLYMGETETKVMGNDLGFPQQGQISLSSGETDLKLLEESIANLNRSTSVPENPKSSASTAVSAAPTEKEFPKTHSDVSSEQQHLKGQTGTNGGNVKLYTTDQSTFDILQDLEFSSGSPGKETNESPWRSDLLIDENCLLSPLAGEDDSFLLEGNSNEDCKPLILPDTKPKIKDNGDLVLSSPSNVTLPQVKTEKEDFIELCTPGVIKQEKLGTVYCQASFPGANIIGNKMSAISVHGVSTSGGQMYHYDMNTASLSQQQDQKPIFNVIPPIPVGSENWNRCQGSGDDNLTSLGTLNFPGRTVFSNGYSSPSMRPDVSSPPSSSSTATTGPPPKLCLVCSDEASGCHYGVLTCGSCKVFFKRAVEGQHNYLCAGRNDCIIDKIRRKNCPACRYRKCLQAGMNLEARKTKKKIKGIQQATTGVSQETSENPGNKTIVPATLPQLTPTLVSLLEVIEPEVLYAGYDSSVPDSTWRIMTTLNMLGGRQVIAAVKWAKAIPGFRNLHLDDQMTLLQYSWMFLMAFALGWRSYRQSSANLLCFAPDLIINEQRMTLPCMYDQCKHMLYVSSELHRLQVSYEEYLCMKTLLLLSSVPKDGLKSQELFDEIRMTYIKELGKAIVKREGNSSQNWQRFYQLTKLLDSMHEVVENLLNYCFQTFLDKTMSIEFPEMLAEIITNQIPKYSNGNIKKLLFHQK
Experiment: GR Ligand Binding Assay (3H-dexamethasone displacement, HeLa cell lysate)
Conditions: 3H-DEX trace, DEX as reference, read-out: GR BIND Ki
Protocol: Binding Buffer: TEGM (10 mM Tris-HCl, 1 mM EDTA, 10% glycerol, 1 mM beta-mecaptoethanol, 10 mM Sodium Molybdate, pH 7.2)
Dexmethasone-methyl-^3H, (DEX*); (Amersham cat# TRK645) Dexamethasone(DEX) (Sigma, cat# D1756):
Cells (Hall R. E., et al., European Journal of Cancer, 30A: 484-490 (1994)) HeLa (ATCC) cultured in RPMI 1640 (Gibco 11835-055) containing 20 mM Hepes, 4 mM L-glu, 10 ug/ml of human insulin (Sigma, I-0259), 10% FBS and 20 ug/ml of Gentamicin (Gibco#15710-072) are rinsed twice in PBS. Phenol red-free Trypsin-EDTA is diluted in the same PBS 1:10. The cell layers are rinsed with 1× Trypsin, extra Trypsin is poured out, and the cell layers are incubated at 37° C. for ˜2 min. The flask is tapped and checked for signs of cell detachment. Once the cells begin to slide off the flask, the complete media is added. The cells are counted at this point, then diluted to the appropriate concentration and split into flasks or dishes for further culturing (Usually 1:3 to 1:6 dilution).
When the cells are 70 to 85% confluent, they are detached as described above, and collected by centrifuging at 1000 g for 10 minutes at 4° C. The cell pellet is washed twice with TEGM (10 mM Tris-HCl, 1 mM EDTA, 10% glycerol, 1 mM beta-mercaptoethanol, 10 mM Sodium Molybdate, pH 7.2). After the final wash, the cells are resuspended in TEGM at a concentration of 10^7 cells/mL. The cell suspension is snap frozen in liquid nitrogen or ethanol/dry ice bath and transferred to −80° C. freezer on dry ice. Before setting up the binding assay, the frozen samples are left on ice-water to just thaw (˜1 hr). Then the samples are centrifuged at 12,500 g to 20,000 g for 30 min at 4° C. The supernatant is used to set-up assay right away. If using 50 μL of supernatant, the test compound can be prepared in 50 μL of the TEGM buffer.
1×TEGM buffer is prepared, and the isotope-containing assay mixture is prepared in the following order: EtOH (2% final concentration in reaction), ^3H-DEX (Amersham Biosciences) and 1×TEGM. [e.g. For 100 samples, 200 μL (100×2) of EtOH+4.25 μL of 1:10 ^3H—Dex stock+2300 μL (100×23) 1×TEGM]. The compound is serially diluted, e.g., if starting final conc. is 1 μM, and the compound is in 25 μL of solution, for duplicate samples, 75 μL of 4×1 μM solution is made and 3 μL of 100 μM is added to 72 μL of buffer, and 1:5 serial dilution.
25 μL, of 3H-DEX (6 nM) trace and 25 μL compound solution are first mixed together, followed by addition of 50 μL receptor solution. The reaction is gently mixed, spun briefly at about 200 rpm and incubated at 4° C. overnight. 100 μL of 50% HAP slurry is prepared and added to the incubated reaction which is then vortexed and incubated on ice for 5 to 10 minutes. The reaction mixture is vortexed twice more to resuspend HAP while incubating reaction. The samples in 96-well format are then washed in wash buffer using The FilterMate™ Universal Harvester plate washer (Packard). The washing process transfers HAP pellet containing ligand-bound expressed receptor to Unifilter-96 GF/B filter plate (Packard). The HAP pellet on the filter plate is incubated with 50 μL of MICROSCINT (Packard) scintillint for 30 minutes before being counted on the TopCount microscintillation counter (Packard). IC50s are calculated using DEX as a reference.

Row | SMILES | Ki
1 | COc1cccnc1C(O)C[C@]1(CO)CCC2=Cc3c(cnn3-c3cccc(F)c3)C[C@@]21C (single isomer, unassigned) [Example 26b] | 35.5 nM
2 | COc1cccnc1C(O)C[C@]1(CO)CCC2=Cc3c(cnn3-c3ccc(F)cc3)C[C@@]21C (single isomer, unassigned) [Example 21a] | 7.6 nM
3 | C[C@]12Cc3cnn(-c4cccc(F)c4)c3C=C1CC[C@@]2(CO)CC(O)c1cccnc1 (single isomer, unassigned) [Example 27b] | 13.4 nM
4 | CC(O)(C[C@]1(CO)CCC2=Cc3c(cnn3-c3ccc(F)cc3)C[C@@]21C)c1cccnc1 (single isomer, unassigned) [Example 25b] | 21.9 nM
5 | C[C@]12Cc3cnn(-c4ccc(F)cc4)c3C=C1CC[C@@]2(CO)CC(O)C1CC1 (single isomer, unassigned) [Example 20a, 1-cyclopropyl-2-[(4αS)-1-(4-fluorophenyl)-5-(hydroxymethyl)-4α-methyl-1,4,4α,5,6,7-hexahydrocyclopenta[f]indazol-5-yl]ethanol] | 22.6 nM
6 | C[C@]12Cc3cnn(-c4ccc(F)cc4)c3C=C1CC[C@@]2(CO)CC(O)c1ccncc1 (single isomer, unassigned) [Example 17a] | 6.4 nM
7 | CC(C)C(O)C[C@]1(CO)CCC2=Cc3c(cnn3-c3ccc(F)cc3)C[C@@]21C (single isomer, unassigned) [Example 14a] | 6.4 nM
8 | CC(O)(C[C@]1(CO)CCC2=Cc3c(cnn3-c3ccc(F)cc3)C[C@@]21C)c1cccnc1 (single isomer, unassigned) [Example 25a] | 26.3 nM
9 | C[C@]12Cc3cnn(-c4cccc(F)c4)c3C=C1CC[C@@]2(CO)CC(O)c1ccccn1 (single isomer, unassigned) [Example 19a] | 3.7 nM
10 | C[C@]12Cc3cnn(-c4cccc(F)c4)c3C=C1CC[C@@]2(CO)CC(O)c1cccnc1 (single isomer, unassigned) [Example 27a] | 13.9 nM
11 | C[C@]12Cc3cnn(-c4ccc(F)cc4)c3C=C1CC[C@@]2(CO)CC(O)C1CC1 (single isomer, unassigned) [Example 20b, 1-cyclopropyl-2-[(4αS)-1-(4-fluorophenyl)-5-(hydroxymethyl)-4α-methyl-1,4,4α,5,6,7-hexahydrocyclopenta[f]indazol-5-yl]ethanol] | 15.1 nM
12 | C[C@]12Cc3cnn(-c4ccc(F)cc4)c3C=C1CC[C@@]2(CO)CC(O)c1ccncc1 (single isomer, unassigned) [Example 17b] | 7.5 nM
13 | C[C@]12Cc3cnn(-c4ccc(F)cc4)c3C=C1CC[C@@]2(CO)CC(O)C(F)(F)F (single isomer, unassigned) [Example 28a] | 8.3 nM

The remaining compounds from weak to strong by Ki, led by results:

Row | Ki | SMILES
14 | 3.7 nM | Cc1ccc(C(O)C[C@]2(CO)CCC3=Cc4c(cnn4-c4ccc(F)cc4)C[C@@]32C)nc1 (stereo partly drawn) [Example 16, 2-[(4αS,5R)-1-(4-fluorophenyl)-5-(hydroxymethyl)-4α-methyl-1,4,4α,5,6,7-hexahydrocyclopenta[f]indazol-5-yl]-1-(5-methylpyridin-2-yl)ethanol]
15 | 3.1 nM | C[C@]12Cc3cnn(-c4ccc(F)cc4)c3C=C1CC[C@@]2(CO)CC(O)c1ncccc1F (single isomer, unassigned) [Example 10a]
16 | 2.6 nM | C[C@]12Cc3cnn(-c4ccc(F)cc4)c3C=C1CC[C@@]2(CO)CC1OC(=O)c2ccccc21 (single isomer, unassigned) [Example 12a]
17 | 2.3 nM | C[C@]12Cc3cnn(-c4ccc(F)cc4)c3C=C1CC[C@@]2(CO)CC(O)c1ccc(F)cn1 (single isomer, unassigned) [Example 22a]
18 | 2.3 nM | C[C@]12Cc3cnn(-c4ccc(F)cc4)c3C=C1CC[C@@]2(CO)CC(O)C1CCCCC1 (single isomer, unassigned) [Example 18b, 1-cyclohexyl-2-[(4αS)-1-(4-fluorophenyl)-5-(hydroxymethyl)-4α-methyl-1,4,4α,5,6,7-hexahydrocyclopenta[f]indazol-5-yl]ethanol]
19 | 2.2 nM | Cc1ccc(C(O)C[C@]2(CO)CCC3=Cc4c(cnn4-c4ccc(F)cc4)C[C@@]32C)cc1 (single isomer, unassigned) [Example 2a]
20 | 2.1 nM | Cc1ccc(C(O)C[C@]2(CO)CCC3=Cc4c(cnn4-c4ccc(F)cc4)C[C@@]32C)cc1 (single isomer, unassigned) [Example 2b]
21 | 2.1 nM | C[C@]12Cc3cnn(-c4ccc(F)cc4)c3C=C1CC[C@@]2(CO)CC(O)c1cc(F)cc(F)c1 (stereo partly drawn) [Example 9, 1-(3,5-difluorophenyl)-2-[(4αS,5R)-1-(4-fluorophenyl)-5-(hydroxymethyl)-4α-methyl-1,4,4α,5,6,7-hexahydrocyclopenta[f]indazol-5-yl]ethanol]
22 | 1.9 nM | C[C@]12Cc3cnn(-c4ccc(F)cc4)c3C=C1CC[C@@]2(CO)CC(O)c1ccccc1 (single isomer, unassigned) [Example 13b]
23 | 1.8 nM | C[C@]12Cc3cnn(-c4ccc(F)cc4)c3C=C1CC[C@@]2(CO)CC(O)c1ncccc1F (single isomer, unassigned) [Example 10b]
24 | 1.5 nM | C[C@]12Cc3cnn(-c4ccc(F)cc4)c3C=C1CC[C@@]2(CO)CC1OC(=O)c2ccccc21 (single isomer, unassigned) [Example 12b]
25 | 1.3 nM | C[C@]12Cc3cnn(-c4ccc(F)cc4)c3C=C1CC[C@@]2(CO)CC(O)c1cc(F)cc(Cl)c1 (single isomer, unassigned) [Example 6b]
26 | 1.1 nM | C[C@]12Cc3cnn(-c4ccc(F)cc4)c3C=C1CC[C@@]2(CO)CC(O)c1cc(F)cc(Cl)c1 (single isomer, unassigned) [Example 6a]
27 | 0.9 nM | C[C@]12Cc3cnn(-c4ccc(F)cc4)c3C=C1CC[C@@]2(CO)CC(O)c1ccccc1Cl (single isomer, unassigned) [Example 3a]
28 | 0.9 nM | Cc1cccc(C(O)C[C@]2(CO)CCC3=Cc4c(cnn4-c4ccc(F)cc4)C[C@@]32C)c1 (single isomer, unassigned) [Example 5b]
29 | 0.9 nM | C[C@]12Cc3cnn(-c4ccc(F)cc4)c3C=C1CC[C@@]2(CO)CC(O)c1ccccc1F (stereo partly drawn) [Example 4, 1-(2-fluorophenyl)-2-[(4αS,5R)-1-(4-fluorophenyl)-5-(hydroxymethyl)-4α-methyl-1,4,4α,5,6,7-hexahydrocyclopenta[f]indazol-5-yl]ethanol]
30 | 0.9 nM | C[C@]12Cc3cnn(-c4ccc(F)cc4)c3C=C1CC[C@@]2(CO)CC(O)c1cccc(C(F)(F)F)c1 (single isomer, unassigned) [Example 7b]
